Reference: EP3492066A1, “COSMETIC PREPARATIONS HAVING A CALMING EFFECT” (Beiersdorf AG, priority 2010, dated 2012)

Columns and labels:
Probandinnen [1] = assay: Olfactometer test with psychophysiological measurement (blood volume pulse amplitude, heart rate) versus placebo; type: in vivo, Menschen; details: for Blutvolumenpuls Amplitude: gegenüber der Placebokontrolle (Propylenglykol), 5 min fragrance by olfactometer; for Blutvolumenpuls Amplitude (Abbildung 1): 0,025% Tetrahydro-6-pentyl-2H-pyran-2-one (N=9), 0,075% 2,6-Dimethyl-7-octen-2-ol (N=10), gegenüber Placebokontrolle Propylenglycol (N=10); for Änderung der Herzrate: normalised
Source text: Es wurde in weiteren Tests die beruhigende Wirkung der Duftstoffe 6-Methyl-5-Hepten-2-one, Octan-2-one, Heptan-2-one, Nonan-2-one, 5-hexyldihydro-5-methyl-2(3H)-furanone, Tetrahydro-6-pentyl-2H-pyran-2-one, Octanal und 2,6-Dimethyl-7-octen-2-ol auf den Menschen untersucht. Dazu wurde ein Testdesign gewählt, bei dem mit Hilfe eines Olfaktometers (Burghart) kosmetisch einsetzbare und kommerziell erhältliche Duftstoffe an die Nase des Probanden gebracht wurden. Die Duftstoffe wurden in Propylenglykol (Caelo) gelöst. Als Placebokontrolle wurde entsprechend ebenfalls Propylenglykol eingesetzt
Die Probandinnen wurden in einer bequemen, leicht nach hinten gelehnten Haltung auf einem Sessel platziert. Das Ende des Olfaktometerschlauches wurde im Abstand von etwa 10 cm vor der Nase des Probanden platziert und mit Hilfe eines Stativs fixiert. Der Versuchsaufbau (Nexus, Olfaktometer) wurde von den Probandinnen mit Hilfe einer spanischen Wand abgeschirmt, um die Teilnehmerinnen nicht durch das Messgeschehen abzulenken. Die Messungen fanden in einem hellen, gut gelüfteten, auf 21°C temperierten Raum statt.
An den Untersuchungen nahmen Probandinnen im Alter von 20 bis 40 Jahren teil. Das Durchschnittsalter betrug 31 Jahre. Die Probandinnen besaßen einen BMI zwischen 19 und 25. Die Probandinnen wurden gebeten, einen Tag vor Studienbeginn auf Parfum und Body Lotion zu verzichten. Am Messtag selbst durften die Teilnehmerinnen weder Parfum, noch parfümierte Deoprodukte, Body Lotions, Gesichtscreme, Handcreme und Haarspray benutzen. Sie mussten auf Kaffee, Schwarztee, Fruchtsäfte und Zigaretten verzichten und durften 30 min vor Testbeginn nichts mehr essen und ausschließlich Wasser trinken.
Die Einstellungen am Olfaktometer sahen einen Luftstrom von 4 L/min vor. Die externe Druckluft betrug 2 bar. Die Probandinnen wurden mit den entsprechenden Messelektroden bestückt und akklimatisierten zunächst für 1 min. Diese Zeit wurde gleichzeitig genutzt, um sicherzustellen, dass sich die Elektroden zur Bestimmung psychophysiologischer Parameter in einem schwankungsfreien und messbereiten Zustand befinden. Alle Probandinnen erhielten im Anschluss für 5 min Kontrollluft ohne Duft. Während dieser Zeit sollten alle Probandinnen einen emotional neutralen Zustand erreichen. Anschließend erhielten die Probandinnen für 5 min einen Duftstoff, der so niedrig konzentriert war, dass er nicht unangenehm oder gar stechend empfunden wurde. Alle Duftstoffe wurden in Propylenglykol gelöst. Als Placebokontrolle diente ebenfalls Propylenglykol. Während der gesamten 10 min wurden die psychophysiologischen Messparameter dermale Aktivität, Herzrate und Blutvolumenpuls mit Hilfe des Messgeräts NeXus und der Software Biotrace (Mind Media B.V.) erfasst. Die Differenz zwischen maximalem und minimalem Blutvolumen innerhalb eines Herzzyklus nennt man Blutvolumenpuls Amplitude. Dieser Wert sinkt bei psychischer Belastung ab. Umgekehrt kann ein Anstieg als Entspannungsreaktion interpretiert werden.
Um eine gute Vergleichbarkeit der Messdaten der verschiedenen Testgruppen gewährleisten zu können, wurden die Rohdaten der Messung normiert. Dafür wurde der Mittelwert der BVP Amplitude 1 min vor Duftapplikation von allen anderen Messwerten abgezogen. Die Summe der Differenzen ergibt die Änderung der BVP Amplitude in µV.

Probandinnen [2] = assay: Short stress test (unpleasant pictures, loud drum rhythm) with Self-Assessment Manikin (SAM) rating of nervousness; type: in vivo, Menschen; details: im Mittel, compared with Placebo-behandelte Probandinnen
Procedure: Zur Ergänzung der zuvor ermittelten Daten wurde mit den Probandinnen ein kurzer Stresstest durchgeführt, bei dem sie nach einer Anfangsentspannung für 1 min einer schnellen Folge von unangenehmen Bildern (Spinnen, Feuer, etc.) auf einem Fernsehbildschirm ausgesetzt wurden. Die visuellen Reize wurden von einem lauten Trommelrhythmus begleitet. Vor und nach dem Stresstest wurden die Probandinnen gebeten, mit Hilfe eines Self-Assessment Manikins (SAM), [formula] ihre eigene Nervosität zu bewerten.
Beispielhaft sind in Abbildung 2 die Werte des SAM-Fragebogens für Nervosität für 2,6-Dimethyl-7-octen-2-ol und Tetrahydro-6-pentyl-2H-pyran-2-one dargestellt. Abbildung 2 zeigt die Angaben der Probandinnen zu ihrer Nervosität vor und nach dem Stresstest als Differenz (nachher minus vorher).

| Compound | Blutvolumenpuls Amplitude (Probandinnen [1]) | Stress-vermittelte Änderung der Nervosität (SAM) (Probandinnen [2]) | further results |
| --- | --- | --- | --- |
| CC(=O)CCC=C(C)C [6-Methyl-5-Hepten-2-one] | Beruhigungs- bzw. Entspannungsreaktion | geringeren Stress-vermittelten Änderung der Nervosität | – |
| CCCCCC1CCCC(=O)O1 (stereo not shown) [Tetrahydro-6-pentyl-2H-pyran-2-one] | Anstieg | geringeren Stress-vermittelten Änderung der Nervosität | Blutvolumenpuls Amplitude (Abbildung 1) (Probandinnen [1]): Anstieg; Änderung der Herzrate (Probandinnen [1]; Duftphase, Zeit 300 s, 0,025% in Propylenglykol): -2,51 bpm; Änderung der Herzrate (Probandinnen [1]; Duftphase, Zeit 315 s, 0,025% in Propylenglykol): -3,27 bpm; Änderung der Herzrate (Probandinnen [1]; Duftphase, Zeit 330 s, 0,025% in Propylenglykol): -2,71 bpm; Änderung der Herzrate (Probandinnen [1]; Duftphase, Zeit 435 s, 0,025% in Propylenglykol): -1,94 bpm; Änderung der Herzrate (Probandinnen [1]; Duftphase, Zeit 540 s, 0,025% in Propylenglykol): -2,91 bpm; Änderung der Herzrate (Probandinnen [1]; Duftphase, Zeit 585 s, 0,025% in Propylenglykol): -2,44 bpm; Änderung der Herzrate (Probandinnen [1]; Kontrollluft (before fragrance application), Zeit 30 s, 0,025% group): -1,26 bpm; Änderung der Herzrate (Probandinnen [1]; Kontrollluft (before fragrance application), Zeit 90 s, 0,025% group): -1,26 bpm; Änderung der Herzrate (Probandinnen [1]; Kontrollluft (before fragrance application), Zeit 135 s, 0,025% group): -1,65 bpm; Änderung der Herzrate (Probandinnen [1]; Kontrollluft (before fragrance application), Zeit 180 s, 0,025% group): -2,16 bpm; Änderung der Herzrate (Probandinnen [1]; Kontrollluft (before fragrance application), Zeit 225 s, 0,025% group): -0,63 bpm; Änderung der Herzrate (Probandinnen [1]; Kontrollluft (before fragrance application), Zeit 285 s, 0,025% group): -0,02 bpm; Herzrate (Probandinnen [1]; result in words, im Vergleich zur Placebokontrolle, after fragrance application): Senkung der Herzrate |
| CCCCCCC1(C)CCC(=O)O1 (stereo not shown) [5-hexyldihydro-5-methyl-2(3H)-furanone] | Beruhigungs- bzw. Entspannungsreaktion | geringeren Stress-vermittelten Änderung der Nervosität | – |
| CCCCCCCC=O [Octanal] | Beruhigungs- bzw. Entspannungsreaktion | geringeren Stress-vermittelten Änderung der Nervosität | – |
| C=CC(C)CCCC(C)(C)O (stereo not shown) [2,6-Dimethyl-7-octen-2-ol] | Anstieg | geringeren Stress-vermittelten Änderung der Nervosität | Blutvolumenpuls Amplitude (Abbildung 1) (Probandinnen [1]): Anstieg |
| CCCCCC(C)=O [Heptan-2-one] | Beruhigungs- bzw. Entspannungsreaktion | geringeren Stress-vermittelten Änderung der Nervosität | – |
| CCCCCCCC(C)=O [Nonan-2-one] | Beruhigungs- bzw. Entspannungsreaktion | geringeren Stress-vermittelten Änderung der Nervosität | – |
| CCCCCCC(C)=O [Octan-2-one] | Beruhigungs- bzw. Entspannungsreaktion | geringeren Stress-vermittelten Änderung der Nervosität | – |
